Literature values in patent US9714250B2, “Crystalline forms of temozolomide and the method for preparing same” (Jiangsu Tasly Diyi Pharmaceutical Co., Ltd., priority 2013, dated 2017).

Settings: heated to approximately 30° C.; in US20050187206; cited from earlier work

Compound: Cn1nnc2c(C(N)=O)ncn2c1=O [Form I, Temozolomide]
- Crystalline form transformation on heating: transformed into crystalline Form II
